In US7956053B2, “Inhibitors of tyrosine kinases” (Novartis AG, priority 2002, dated 2011):

Tests used:
[1] = biological target: T1, c-Abl (Homo sapiens, UniProt P00519); assay: Test for activity against c-Abl protein tyrosine kinase (filter binding assay); format: biochemical
T1 construct: The His-tagged kinase domain of c-Abl is cloned and expressed in the baculovirus/Sf9 system; His; made in house; host or cells: baculovirus/Sf9
T1 sequence (P00519 242-493 limits assumed): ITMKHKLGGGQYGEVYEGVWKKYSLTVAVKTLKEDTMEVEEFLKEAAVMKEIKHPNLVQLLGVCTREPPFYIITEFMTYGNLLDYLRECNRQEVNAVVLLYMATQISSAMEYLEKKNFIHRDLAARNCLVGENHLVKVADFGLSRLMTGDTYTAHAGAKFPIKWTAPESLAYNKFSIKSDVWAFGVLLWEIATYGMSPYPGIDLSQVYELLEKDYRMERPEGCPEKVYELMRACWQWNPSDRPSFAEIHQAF
Method: Test for activity against c-Abl protein tyrosine kinase. The test is conducted as a filter binding assay as follows: The His-tagged kinase domain of c-Abl is cloned and expressed in the baculovirus/Sf9 system as described by Bhat et al., J Biol. Chem. 272, 16170-5 (1997). A protein of 37 kD (c-Abl kinase) is purified by a two-step procedure over a Cobalt metal chelate column followed by an anion exchange column with a yield of 1-2 mg/L of Sf9 cells. The purity of the c-Abl kinase is >90% as judged by SDS-PAGE after Coomassie blue staining. The assay contains: c-Abl kinase (50 ng), 20 mM Tris.HCl, pH 7.5, 10 mM MgCl2, 10 μM Na3VO4, 1 mM DTT and 0.06 μCi/assay [γ^33 P]-ATP (5 μM ATP) using 30 μg/mL poly-Ala,Glu,Lys,Tyr-6:2:5:1 (Poly-AEKY, Sigma P1152) in the presence of 1% DMSO, total volume of 30 μL. Reactions are terminated by adding 10 μL of 250 mM EDTA, and 30 μL of the reaction mixture is transferred onto Immobilon-PVDF membrane (Millipore, Bedford, Mass., USA) previously soaked for 5 min with methanol, rinsed with water, then soaked for 5 min with 0.5% H3PO4 and mounted on vacuum manifold with disconnected vacuum source. After spotting all samples, vacuum is connected and each well rinsed with 200 μL 0.5% H3PO4. Membranes are removed and washed on a shaker with 0.5% H3PO4 (4 times) and once with ethanol. Membranes are counted after drying at ambient temperature, mounting in Packard TopCount 96-well frame, and addition of 10 μL/well of Microscint™ (Packard).
(§1) Enzymatic (c-Abl, KDR, Flt3) in vitro inhibition data are presented as % inhibition at 10 μM. The measurements are made as described above in the general description.

[2] = biological target: KDR (Homo sapiens, UniProt P35968); assay: Enzymatic KDR in vitro inhibition; format: biochemical
Chain of KDR (P35968 20-1356): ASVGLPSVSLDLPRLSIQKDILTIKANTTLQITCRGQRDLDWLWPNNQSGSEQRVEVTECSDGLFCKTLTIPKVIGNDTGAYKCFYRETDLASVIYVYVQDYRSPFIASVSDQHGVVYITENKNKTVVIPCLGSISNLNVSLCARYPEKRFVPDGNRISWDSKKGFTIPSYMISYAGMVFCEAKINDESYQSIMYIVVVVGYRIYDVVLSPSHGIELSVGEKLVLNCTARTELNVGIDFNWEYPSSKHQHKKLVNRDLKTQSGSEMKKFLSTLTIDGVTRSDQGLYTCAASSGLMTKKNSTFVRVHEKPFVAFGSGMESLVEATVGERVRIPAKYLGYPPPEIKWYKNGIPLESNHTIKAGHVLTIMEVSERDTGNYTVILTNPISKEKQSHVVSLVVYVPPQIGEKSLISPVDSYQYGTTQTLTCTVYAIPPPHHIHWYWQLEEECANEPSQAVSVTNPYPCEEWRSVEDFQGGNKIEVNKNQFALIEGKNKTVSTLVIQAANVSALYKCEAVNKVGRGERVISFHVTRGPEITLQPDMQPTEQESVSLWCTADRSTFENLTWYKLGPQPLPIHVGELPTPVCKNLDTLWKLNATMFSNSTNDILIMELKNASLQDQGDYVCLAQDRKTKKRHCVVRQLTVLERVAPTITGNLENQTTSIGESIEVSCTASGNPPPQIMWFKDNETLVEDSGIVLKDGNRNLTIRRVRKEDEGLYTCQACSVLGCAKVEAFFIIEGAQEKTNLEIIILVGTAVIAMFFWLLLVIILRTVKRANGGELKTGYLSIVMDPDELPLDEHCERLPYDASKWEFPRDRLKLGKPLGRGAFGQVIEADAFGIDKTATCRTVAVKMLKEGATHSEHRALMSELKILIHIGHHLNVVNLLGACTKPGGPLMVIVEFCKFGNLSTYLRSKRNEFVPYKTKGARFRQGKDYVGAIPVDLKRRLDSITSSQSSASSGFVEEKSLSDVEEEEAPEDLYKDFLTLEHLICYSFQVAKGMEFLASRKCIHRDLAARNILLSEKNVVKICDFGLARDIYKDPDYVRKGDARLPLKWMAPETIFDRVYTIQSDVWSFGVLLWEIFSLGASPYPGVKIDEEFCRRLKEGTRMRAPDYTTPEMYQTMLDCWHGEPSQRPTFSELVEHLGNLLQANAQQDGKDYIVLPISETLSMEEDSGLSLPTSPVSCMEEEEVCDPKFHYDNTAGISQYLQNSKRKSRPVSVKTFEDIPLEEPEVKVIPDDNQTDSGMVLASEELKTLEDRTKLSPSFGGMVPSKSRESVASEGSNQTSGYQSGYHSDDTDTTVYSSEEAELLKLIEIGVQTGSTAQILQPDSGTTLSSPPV
Method: Test for activity against VEGF-receptor tyrosine kinase. The test is conducted using Flt-1 VEGF-receptor tyrosine kinase. The detailed procedure is as follows: 30 μL kinase solution (10 ng of the kinase domain of Flt-1, Shibuya et al., Oncogene 5, 519-24 [1990]) in 20 mM Tris.HCl pH 7.5, 3 mM manganese dichloride (MnCl2), 3 mM magnesium chloride (MgCl2), 10 μM sodium vanadate, 0.25 mg/mL polyethylenglycol (PEG) 20000, 1 mM dithiothreitol and 3 μg/μL poly(Glu,Tyr) 4:1 (Sigma, Buchs, Switzerland), 8 μM [^33P]-ATP (0.2 μCi), 1% DMSO, and 0 to 100 μM of the compound to be tested are incubated together for 10 minutes at room temperature. The reaction is then terminated by the addition of 10 μL 0.25 M ethylenediaminetetraacetate (EDTA) pH 7. Using a multichannel dispenser (LAB SYSTEMS, USA), an aliquot of 20 μL is applied to a PVDF (=polyvinyl difluoride) Immobilon P membrane (Millipore, Bedford, USA), through a Gibco-BRL microtiter filter manifold and connected to a vacuum. Following complete elimination of the liquid, the membrane is washed 4 times successively in a bath containing 0.5% phosphoric acid (H3PO4) and once with ethanol, incubated for 10 minutes each time while shaking, then mounted in a Hewlett Packard TopCount Manifold and the radioactivity measured after the addition of 10 μL Microscint® (β-scintillation counter liquid). IC50-values are determined by linear regression analysis of the percentages for the inhibition of each compound in at least four concentrations (as a rule 0.01, 0.1, 1.0 and 10 μmol).
as §1

inhibition at 10 µM [1] [%]	inhibition at 10 µM [2] [%]	SMILES
80	70	Cc1ccc(C(=O)NCc2ccc(S(C)(=O)=O)cc2)cc1Nc1nccc(-c2cccnc2)n1 [Example 24, 4-Methyl-N-[4-(methylsulfonyl)benzyl]-3-[[4-(3-pyridinyl)-2-pyrimidinyl]amino]benzamide]
44	73	Cc1ccc(C(=O)NCc2ccc(N(C)C)cc2)cc1Nc1nccc(-c2cccnc2)n1 [Example 25, N-[[4-(Dimethylamino)phenyl]methyl]-4-methyl-3-[[4-(3-pyridinyl)-2-pyrimidinyl]amino]benzamide]
55	56	Cc1ccc(C(=O)NCC(N)=O)cc1Nc1nccc(-c2cccnc2)n1 [Example 26, N-(2-Amino-2-oxoethyl)-4-methyl-3-[[4-(3-pyridinyl)-2-pyrimidinyl]amino]benzamide]
54	51	COC(=O)CNC(=O)c1ccc(C)c(Nc2nccc(-c3cccnc3)n2)c1 [Example 27, N-[4-Methyl-3-[[4-(3-pyridinyl)-2-pyrimidinyl]amino]benzoyl]glycine methyl ester]
73	61	COC(=O)CCNC(=O)c1ccc(C)c(Nc2nccc(-c3cccnc3)n2)c1 [Example 28, N-[4-Methyl-3-[[4-(3-pyridinyl)-2-pyrimidinyl]amino]benzoyl]beta-alanine methyl ester]
57	37	Cc1ccc(C(=O)NCCCO)cc1Nc1nccc(-c2cccnc2)n1 [Example 30, N-(3-Hydroxypropyl)-4-methyl-3-[[4-(3-pyridinyl)-2-pyrimidinyl]amino]benzamide]
68	83	CCN(CC)C(=O)c1ccc(C)c(Nc2nccc(-c3cccnc3)n2)c1 [Example 31, N,N-Diethyl-4-methyl-3-[[4-(3-pyridinyl)-2-pyrimidinyl]amino]benzamide]
90	37	Cc1ccc(C(=O)N[C@@H](Cc2ccccc2)C(=O)OC(C)(C)C)cc1Nc1nccc(-c2cccnc2)n1 [Example 32, N-[4-Methyl-3-[[4-(3-pyridinyl)-2-pyrimidinyl]amino]benzoyl]-(L)-phenylalanine 1,1-dimethylethyl ester]
97	51	Cc1ccc(C(=O)N[C@H](C)C(=O)OC(C)(C)C)cc1Nc1nccc(-c2cccnc2)n1 [Example 33, N-[4-Methyl-3-[[4-(3-pyridinyl)-2-pyrimidinyl]amino]benzoyl]-(D)-alanine 1,1-dimethylethyl ester]
73	89	Cc1ccc(C(=O)N2CCC(NC(=O)c3ccccc3)CC2)cc1Nc1nccc(-c2cccnc2)n1 [Example 34, N-[1-[4-Methyl-3-[[4-(3-pyridinyl)-2-pyrimidinyl]amino]benzoyl]-4-piperidinyl]benzamide]
27	47	Cc1ccc(C(=O)N2CCOCC2)cc1Nc1nccc(-c2cccnc2)n1 [Example 35, 4-[4-Methyl-3-[[4-(3-pyridinyl)-2-pyrimidinyl]amino]benzoyl]-morpholine]
57	77	COc1ccc(N2CCN(C(=O)c3ccc(C)c(Nc4nccc(-c5cccnc5)n4)c3)CC2)cc1 [Example 36, 1-(4-Methoxyphenyl)-4-[4-methyl-3-[[4-(3-pyridinyl)-2-pyrimidinyl]amino]-benzoyl]piperazine]
28	82	Cc1ccc(C(=O)N2CCN(c3ccncc3)CC2)cc1Nc1nccc(-c2cccnc2)n1 [Example 37, 1-[4-Methyl-3-[[4-(3-pyridinyl)-2-pyrimidinyl]amino]benzoyl]-4-(4-pyridinyl)-piperazine]
74	91	Cc1ccc(C(=O)N2CCN(c3cnccn3)CC2)cc1Nc1nccc(-c2cccnc2)n1 [Example 38, 1-[4-Methyl-3-[[4-(3-pyridinyl)-2-pyrimidinyl]amino]benzoyl]-4-(pyrazinyl)-piperazine]
64	74	Cc1ccc(C(=O)N2CCN(Cc3ccccc3)CC2)cc1Nc1nccc(-c2cccnc2)n1 [Example 39, 1-[4-Methyl-3-[[4-(3-pyridinyl)-2-pyrimidinyl]amino]benzoyl]-4-(phenylmethyl)-piperazine]
65	78	Cc1ccc(C(=O)N2CCN(C3CCCC3)CC2)cc1Nc1nccc(-c2cccnc2)n1 [Example 40, 1-Cyclopentyl-4-[4-methyl-3-[[4-(3-pyridinyl)-2-pyrimidinyl]amino]benzoyl]piperazine]
13	52	Cc1ccc(C(=O)N2CCN(CC(=O)N3CCOCC3)CC2)cc1Nc1nccc(-c2cccnc2)n1 [Example 41, 4-{{4-[4-Methyl-3-[[4-(3-pyridinyl)-2-pyrimidinyl]amino]benzoyl]-1-piperazinyl}acetyl}morpholine]
32	56	Cc1ccc(C(=O)N2CCN(CC(=O)N3CCCC3)CC2)cc1Nc1nccc(-c2cccnc2)n1 [Example 42, 1-[4-Methyl-3-[[4-(3-pyridinyl)-2-pyrimidinyl]amino]benzoyl]-4-[2-oxo-2-(1-pyrrolidinyl)ethyl]piperazine]
37	63	CCOC(=O)N1CCN(C(=O)c2ccc(C)c(Nc3nccc(-c4cccnc4)n3)c2)CC1 [Example 43, 4-[4-Methyl-3-[[4-(3-pyridinyl)-2-pyrimidinyl]amino]benzoyl]-1-piperazinecarboxylic acid ethyl ester]
75	97	Cc1ccc(C(=O)N2CCc3ccccc3C2)cc1Nc1nccc(-c2cccnc2)n1 [Example 44, 2-[4-Methyl-3-[[4-(3-pyridinyl)-2-pyrimidinyl]amino]benzoyl]-1,2,3,4-tetrahydro-isoquinoline]
34	61	COCCN(CCOC)C(=O)c1ccc(C)c(Nc2nccc(-c3cccnc3)n2)c1 [Example 45, N,N-bis(2-Methoxyethyl)-4-methyl-3-[[4-(3-pyridinyl)-2-pyrimidinyl]amino]benzamide]
1	43	Cc1ccc(C(=O)N2CCC(N3CCCCC3)CC2)cc1Nc1nccc(-c2cccnc2)n1 [Example 46, 1′-[4-Methyl-3-[[4-(3-pyridinyl)-2-pyrimidinyl]amino]benzoyl]-1,4′-bipiperidine]
39	74	CCOC(=O)CN(Cc1ccccc1)C(=O)c1ccc(C)c(Nc2nccc(-c3cccnc3)n2)c1 [Example 47, N-[4-Methyl-3-[[4-(3-pyridinyl)-2-pyrimidinyl]amino]benzoyl]-N-(phenylmethyl)-glycine ethyl ester]
90	50	Cc1ccc(C(=O)Nc2cccc(Cl)c2)cc1Nc1nccc(-c2cccnc2)n1 [Example 48, N-(3-Chlorophenyl)-4-methyl-3-[[4-(3-pyridinyl)-2-pyrimidinyl]amino]benzamide]
